# Laboratory results as given in US11084795B2, “CFTR regulators and methods of use thereof” (The Regents of the University of California, priority 2015, dated 2021).
# Entries after “also recorded” stand apart in the source; their conditions may differ.
# What was measured:
# cellular cAMP = assay: GloSensor cAMP assay in FRT cells; format: cell-based, rat; details: 5 μM compound, 10 min, without or with 100 nM forskolin
# Method: Intracellular cAMP activity was measured using a GloSensor luminescence assay (Promega Corp., Madison, Wisconson, USA). FRT null cells were stably transfected with the pGloSensor cAMP plasmid and plated onto white 96-well microplates and grown to confluence. Cells were washed three times with PBS and incubated with 5 μM CFTRact-J027 for 10 min in the absence and presence of 100 nM forskolin. cAMP was assayed according to the manufacturer's instructions.
# Intracellular cAMP activity was measured using a GloSensor luminescence assay (Promega Corp., Madison, Wis., USA). FRT cells stably transfected with the pGloSensor cAMP plasmid (Promega Corp.) were cultured in white 96-well microplates (Corning Costar) overnight. Cells were then washed three times with PBS and incubated with 5 μM test compound for 10 min in the absence and presence of 100 nM forskolin.
# cAMP assay. Intracellular cAMP activity was measured using a GloSensor luminescence assay (Promega Corp., Madison, Wisconson, USA). FRT null cells were stably transfected with the pGloSensor cAMP plasmid and plated onto white 96-well microplates and grown to confluence. […]
# cAMP and cytotoxicity assays. Intracellular cAMP activity was measured using a GloSensor luminescence assay (Promega Corp., Madison, Wis., USA). […]
# [1] = system: enteroids generated from normal human duodenum and jejunum; assay: Swelling measurements in human enteroids; format: cell-based; details: pretreatment 10 min, with 0.1 or 0.2 μM forskolin
# Method: Tissues from human subjects were obtained under approval of the Johns Hopkins University School of Medicine Institutional Review Board (protocol NA_00038329). Duodenal and jejunal biopsy specimens were obtained from adults during routine endoscopy at Johns Hopkins Hospital. Crypt isolation, enteroid propagation and culture were as described (16). For swelling measurements enteroids were seeded in 35-mm dishes with bottom coverglass with 1.5 mL media. On the day of the experiment the media was replaced with 3 mL Advanced DMEM/F12 and enteroids were incubated with 1 mM calcein greenacetoxymethyl ester for 1 h at 37° C. to label cytoplasm. Relative enteroid volume following addition of specified concentrations of forskolin was measured using a laser scanning confocal microscope (Fluoview FV10i-LIV; Olympus) at 37° C., 5% CO2, and 95% relative humidity. In some studies CFTRact-J027 was added 10 min prior to forskolin. Images were acquired every 10 min and analyzed with MetaMorph version 7.7 software (Olympus) to quantify enteroid areas.
# [2] = system: Cl− secretion in mouse colon; assay: Short-circuit current in freshly isolated mouse colon; details: read-out: EC50 for increase in short-circuit current in mouse colon
# Source text: Short-circuit current measurement.
# human wildtype CFTR = human wildtype CFTR (Homo sapiens, UniProt P13569); assay: Patch-clamp (whole-cell and inside-out) in FRT cells expressing human wildtype CFTR; format: cell-based; design: expressed in transfected cells
# Source text: The pipette (intracellular) solution contained (in mM): 120 CsCl, 10 TEA-Cl, 0.5 EGTA, 1 MgCl2, 10 Cs-HEPES, 40 mannitol, 1 ATP (7.4). For inside-out patch-clamp experiments the pipette solution contained (in mM): 150 N-methyl-D-glucamine chloride (NMDG-Cl), 3 CaCl2, 2 MgCl2, 10 Na-Hepes (pH 7.3). […] Pipette electrical resistance for both whole-cell and inside-out experiments was 3-5 MΩ. The protocol for stimulation consisted of 600-ms voltage steps from −100 to +100 mV in 20 mV increments starting from a holding potential of −60 mV. The interval between steps was 4 s. Membrane currents were filtered at 1 kHz and digitized at 5 kHz. Data were analyzed using the Igor software (Wavemetrics, Portland, Oreg.) with custom software kindly provided by Dr. Oscar Moran.
# [3] = system: intestinal fluid absorption; assay: Closed mid-jejunal loop model of intestinal fluid absorption in cystic fibrosis mice; format: in vivo, mouse; details: 30 min
# Method: Mice (wildtype or CF) were given access to 5% dextrose water but not solid food for 24 h before experiments. Mice were anesthetized with isoflurane and body temperature was maintained during surgery at 36-38° C. using a heating pad. A small abdominal incision was made to expose the small intestine, and closed mid-jejunal loops (length 2-3 cm) were isolated by sutures. Loops were injected with 100 μL vehicle alone or 100 μg CFTRact-J027 in vehicle. The abdominal incision was closed with sutures, and mice were allowed to recover from anesthesia. Intestinal loops were removed at 90 min and loop length and weight were measured to quantify fluid secretion. Intestinal absorption was measured in CF mice (to prevent secretion) as described above, except that the loops were removed at 0 or 30 min. Absorption was calculated as 1−(loop weight at 0 min−loop weight at 30 min)/loop weight at 0 min.
# In vivo intestinal secretion and absorption. Mice (wildtype or CF) were given access to 5% dextrose water but not solid food for 24 h before experiments. […] Intestinal loops were removed at 90 min and loop length and weight were measured to quantify fluid secretion. Intestinal absorption was measured in CF mice (to prevent secretion) as described above, except that the loops were removed at 0 or 30 min. Absorption was calculated as 1−(loop weight at 0 min−loop weight at 30 min)/loop weight at 0 min.
# C3H/HeJ mice = assay: Genetic mouse model of chronic constipation (C3H/HeJ); format: in vivo
# Method: The efficacy of orally administered CFTRact-J027 (10 mg/kg) was also tested in a genetically constipated mouse strain (15) (C3H/HeJ, age 8-11 weeks) and their wildtype counterparts (C3H/HeOuJ, age 8-11 weeks). Mice were placed in metabolic cages after CFTRact-J027 or vehicle administration at zero time and stool was collected for 4 h. Stool weight, pellet number and water content were determined as described above. Whole-gut transit time was measured to assess gut motility, in which mice treated with CFTRact-J027 (10 mg/kg, ip) or vehicle at zero time were given with 100 μL blue marker (5% Evans blue, 5% gum Arabic) orally. The time of blue dye appearance in stool was determined. All experiments in C3H/HeJ and C3H/HeOuJ mice were done in paired animals to minimize variability.
# Sequence of human wildtype CFTR (P13569 whole entry): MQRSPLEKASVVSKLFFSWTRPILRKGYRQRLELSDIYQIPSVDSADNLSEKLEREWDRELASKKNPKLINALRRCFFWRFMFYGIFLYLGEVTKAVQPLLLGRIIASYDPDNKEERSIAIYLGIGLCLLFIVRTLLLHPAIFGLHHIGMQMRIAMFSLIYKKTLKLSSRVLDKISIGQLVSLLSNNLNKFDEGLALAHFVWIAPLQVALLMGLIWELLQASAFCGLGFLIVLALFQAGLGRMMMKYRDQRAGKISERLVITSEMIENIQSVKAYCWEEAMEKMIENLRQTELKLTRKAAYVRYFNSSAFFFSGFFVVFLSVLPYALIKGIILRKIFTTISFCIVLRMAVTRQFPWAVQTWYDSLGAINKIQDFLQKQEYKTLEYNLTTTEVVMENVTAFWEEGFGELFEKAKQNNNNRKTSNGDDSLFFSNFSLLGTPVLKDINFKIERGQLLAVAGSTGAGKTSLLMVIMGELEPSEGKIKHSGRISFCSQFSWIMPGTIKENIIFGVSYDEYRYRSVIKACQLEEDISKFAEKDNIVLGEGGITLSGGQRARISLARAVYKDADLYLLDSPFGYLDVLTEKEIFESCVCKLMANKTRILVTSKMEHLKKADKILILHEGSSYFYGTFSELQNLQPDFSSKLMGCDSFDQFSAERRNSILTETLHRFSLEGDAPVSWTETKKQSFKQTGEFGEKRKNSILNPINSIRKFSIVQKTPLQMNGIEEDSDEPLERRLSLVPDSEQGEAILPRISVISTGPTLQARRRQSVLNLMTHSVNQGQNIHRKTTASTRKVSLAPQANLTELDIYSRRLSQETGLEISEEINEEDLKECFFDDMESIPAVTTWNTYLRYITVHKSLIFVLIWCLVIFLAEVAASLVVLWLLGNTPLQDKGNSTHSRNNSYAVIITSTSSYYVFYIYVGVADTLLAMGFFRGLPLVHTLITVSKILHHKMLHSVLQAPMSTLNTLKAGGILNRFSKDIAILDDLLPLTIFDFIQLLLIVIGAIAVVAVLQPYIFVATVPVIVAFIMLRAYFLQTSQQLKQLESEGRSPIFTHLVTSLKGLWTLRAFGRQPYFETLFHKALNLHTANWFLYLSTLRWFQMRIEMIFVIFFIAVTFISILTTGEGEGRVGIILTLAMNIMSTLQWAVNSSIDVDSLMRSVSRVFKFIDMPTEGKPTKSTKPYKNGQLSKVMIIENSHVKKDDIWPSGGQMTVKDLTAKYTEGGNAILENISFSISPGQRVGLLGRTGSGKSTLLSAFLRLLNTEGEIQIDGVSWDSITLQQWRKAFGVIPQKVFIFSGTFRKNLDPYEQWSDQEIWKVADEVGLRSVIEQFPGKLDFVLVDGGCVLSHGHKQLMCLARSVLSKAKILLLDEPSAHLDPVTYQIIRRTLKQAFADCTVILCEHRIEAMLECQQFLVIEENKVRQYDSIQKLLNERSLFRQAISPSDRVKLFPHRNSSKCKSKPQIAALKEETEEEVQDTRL
smiles,measurement,setting,value
"Nc1ccc([N+](=O)[O-])cc1-c1nc2ccccc2n(Cc2ccccc2)c1=O [CFTRact-J027, 3-(2-amino-5-nitrophenyl)-1-benzylquinoxalin-2(1H)-one]",effect on cellular cAMP,cellular cAMP,without causing elevation of cytoplasmic cAMP; also recorded: does not elevate cellular cAMP
same,enteroid swelling response as % of that produced by maximal (5 μM) forskolin,[1],approximately 50%
same,EC50,[2],~0.3 µM
same,"increase of CFTR activity, whole-cell recording",human wildtype CFTR; 1 μM after 150 nM forskolin,more than four-fold
same,"CFTR activity, inside-out patch",human wildtype CFTR; 1 μM after submaximal ATP and catalytic subunit of PKA,strongly increased CFTR activity
same,intestinal fluid absorption,[3],did not affect intestinal fluid absorption
same,whole-gut transit time in C3H/HeJ mice,C3H/HeJ mice; 10 mg/kg ip,normalized the increased whole-gut transit time
same,"4-h stool weight, pellet number and water content","C3H/HeJ mice; 10 mg/kg oral, C3H/HeJ mice","increased 4-h stool weight, pellet number and water content in C3H/HeJ mice to the level of wildtype controls"
same,stool parameters and whole-gut transit time in wildtype control mice,C3H/HeJ mice; C3H/HeOuJ mice,did not affect stool parameters or whole-gut transit time
